Measurements reported in patent publication US11485728B2, “Small molecules for the treatment of autoimmune diseases and cancer” (Athos Therapeutics, Inc., priority 2020, dated 2022).

Key:
[1] = In-vitro half-life in mouse liver microsomes; assay type: in vitro ADME; conditions: Mouse liver microsomes 0.5 mg/mL; 1 μg/mL drug; NRS; read-out: Metabolic Half-life
Experimental: In each of the species (human, rat, mouse) of liver matrix to be tested, a working concentration of 2 μg/mL was prepared of each test article from the 0.5 mg/mL DMSO stock solution by adding 3 μL of 0.5 mg/mL test article stock solution to 747 μL of the 1 mg/mL liver matrix. Incubation was performed at 37±2° C. with gentle, continuous mixing in shaking water bath in 2.0 mL-well capacity 96-Deepwell plates (96-DWP). Samples were retrieved in duplicate at the following time points: 0, 5, 10, 15, 30 and 60 minutes. The final mixture contained 1 μg/mL of drug and 0.5 mg/mL of liver matrix. First, 50 μL of test articles in liver matrix was added to the 96-DWP and pre-warmed the mixture in the 96-DWP for 2 minutes in the 37° C. water bath. The enzymatic reaction was started by the addition of 50 μL of the corresponding 2× NADPH regenerating system (NRS) cofactor solution to all sample wells and stopped by the addition of 300 μL of stop solution (acetonitrile containing 10 ng/mL Tolbutamide as an internal standard (I.Std.). The samples were agitated for 10 minutes and then centrifuged for 20 minutes at 4500 rpm. 25 μL of supernatant was diluted with 475 μL acetonitrile containing I. Std. into a new 96-DWPs for LC-MS/MS analysis.
Half-life calculations were generated and calculated by Graphpad Prism® software. The half-life of test compound was calculated based on the first-order reaction kinetics. The data was transformed to linear regression (y=log(y) where “y” axis represents the % compound remaining at any given time with respect to time 0 minutes; “x” axis represents time in minutes) in order to calculate the half-life.
A comparison of metabolic stability in time-course incubation experiments in varying species of liver can provide information of pharmacokinetic properties of drugs attributable to species-related differences in hepatic metabolism. The results of these experiments often assist in further applications such as assessing in vitro metabolite profiling and choosing relevant species for toxicology studies based on similarities relative to the metabolic stability to the human profile. For these experiments, the test compound was tested in parallel with a positive control, Dasatinab, in an enzymatic reaction solution of each species (human and rat) of liver microsomes containing a NADPH regenerating system (NRS). The final mixture contained 1 μg/mL of drug and 0.5 mg/mL of liver matrix. Incubations were performed at 37±2° C. with gentle, continuous mixing in shaking water bath in 96-Deep well plates. The stability of the test compound is monitored using fast, specific and sensitive LC/MS/MS analysis.

CYP2C9 = biological target: T1, CYP2C9 (Homo sapiens, UniProt P11712); test: CYP-direct inhibition, CYP2C9; assay type: in vitro ADME
T1 construct: from tissue; host or cells: pooled human liver microsomes
Experimental: Many drugs inhibit cytochrome P450 enzymes to cause clinically significant changes in the pharmacokinetics of other drugs. In vitro cytochrome P450 inhibition, can provide crucial information in evaluating potential clinical drug-drug interactions and is useful for focusing in vivo tests to areas of concern. The cytochrome P450 inhibition assay was developed by preparing a working cocktail solution consisting of six probe substrates 10 μM ethoxy-resorufin (CYP1A2), 100 μM rosiglitazone (CYP2C8), 50 μM diclofenac (CYP2C9), 300 μM S-mephenytoin (CYP2C19), 50 μM dextromethorphan (CYP2D6), and 20 μM midazolam (CYP3A4). A mixture solution consists of 140 uL of 0.286 mg/mL of pooled human liver microsome working solution and 20 uL working solutions of test articles, standard control inhibitors, or positive control placebo and 20 uL of substrate cocktail mixture working solution was prepared. The mixture solution was pre-warm in a gentle shaking bath at 37±2° C. for 5 minutes. The enzymatic reaction started by adding 20 uL of NRS working solution to the mixture solution and incubated for 10 minutes at 37±2° C. To stop the reaction, an addition of 400 μL cold stop solution (acetonitrile containing 50 ng/mL Tolbutamide as an internal standard (I.Std.) was added to the mixture solution. The final concentration of test article, inhibitors, substrates, and cofactors are noted in Table 0.1 below. Two individual samples were prepared for each test compound. The extracted samples were vortexed and then centrifuged at 4500 rpm for 7 minutes using Eppendorf Centrifuge 5910R. 200 uL of supernatant was diluting with 200 uL of 50% Methanol into 96-DW plate for LC/MS/MS analysis
Concentration-response plots are used to determine the effects of an inhibitor on an enzymatic reaction. A typical concentration-response plot provides fractional activity (Y axis) is plotted as a function of log inhibitor concentration (X axis). The data are fitted using a standard Sigmoidal dose-response equation which is also called a […] logistic equation. The concentration of compound that results in 50% inhibition of maximal activity is termed as the IC50 (inhibitor concentration yielding 50% inhibition). IC50 value is calculated using Prism GraphPad software, version 9. […].
Cytochrome P450 inhibition of a drug is a key factor in determining pharmacokinetic drug-drug interactions. The objective of this study was to evaluate the inhibition potential of G9a inhibitors on six (6) major human cytochrome P450 enzymes, including CYP1A2, CYP2C8, CYP2C9, CYP2C19, CYP2D6, and CYP3A4. Inhibition was determined by using a substrate cocktail and analyzing the rate of specific metabolites formation. The cytochrome P450 inhibition assay was developed using a cocktail consisting of six (6) probe substrates ethoxy-resorufin (CYP1A2), rosiglitazone (CYP2C8), diclofenac (CYP2C9), S-mephenytoin (CYP2C19), dextromethorphan (CYP2D6), and midazolam (CYP3A4). The cocktail was incubated in human liver microsome with NADPH regenerating system (NRS) in a shaking bath at 37±2° C. The formation of specific metabolites was monitored by LC/MS/MS. Test compound was added to the cocktail-liver microsome mixture at varying concentrations and its effect on cytochrome P450 activity was determined by analyzing the rate of specific metabolite formation. The percent inhibition was calculated and plotted with reference to the concentration, and the IC50 value for inhibition was derived by fitting the data with a using log(inhibitor) vs. normalized response with variable slope least squares fit by Graphpad Prism® software. […].

T1 sequence (P11712 whole entry): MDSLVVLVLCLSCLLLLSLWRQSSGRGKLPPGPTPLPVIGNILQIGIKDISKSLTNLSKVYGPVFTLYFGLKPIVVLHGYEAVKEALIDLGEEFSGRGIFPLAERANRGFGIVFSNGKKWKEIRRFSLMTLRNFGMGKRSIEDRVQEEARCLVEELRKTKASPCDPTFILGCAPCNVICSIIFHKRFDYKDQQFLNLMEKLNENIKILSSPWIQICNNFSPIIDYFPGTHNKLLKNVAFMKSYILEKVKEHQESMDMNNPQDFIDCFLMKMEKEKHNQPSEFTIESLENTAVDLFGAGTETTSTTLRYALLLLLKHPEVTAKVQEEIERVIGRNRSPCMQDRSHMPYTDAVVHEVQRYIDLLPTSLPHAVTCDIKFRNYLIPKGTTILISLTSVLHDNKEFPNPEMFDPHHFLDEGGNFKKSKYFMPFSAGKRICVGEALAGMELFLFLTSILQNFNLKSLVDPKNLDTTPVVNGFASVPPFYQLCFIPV

| half-life at 1 μg/mL [1] [h] | IC50 (CYP2C9) [µM] | SMILES |
| --- | --- | --- |
| > 1 | > 100 | COc1cc2c(NC3CCOCC3)nc(N3CCC(F)(F)CC3)nc2cc1OCCCN1CCCC1 [Compound 2, 2-(4,4-difluoropiperidin-1-yl)-6-methoxy-7-(3-(pyrrolidin-1-yl)propoxy)-N-(tetrahydro-2H-pyran-4-yl)quinazolin-4-amine] |
| > 1 | > 100 | COCCN1CCC(Nc2nc(N3CCC(F)(F)CC3)nc3cc(OCCCN4CCCC4)c(OC)cc23)CC1 [Compound 3, 2-(4,4-difluoropiperidin-1-yl)-6-methoxy-N-(1-(2-methoxyethyl)piperidin-4-yl)-7-(3-(pyrrolidin-1-yl)propoxy)quinazolin-4-amine] |
| > 1 | > 100 | COCCNc1nc(N2CCC(F)(F)CC2)nc2cc(OCCCN3CCCC3)c(OC)cc12 [Compound 4, 2-(4,4-difluoropiperidin-1-yl)-6-methoxy-N-(2-methoxyethyl)-7-(3-(pyrrolidin-1-yl)propoxy)quinazolin-4-amine] |
| > 1 | > 100 | COc1cc2c(NCC3CCN(C)CC3)nc(N3CCC(F)(F)CC3)nc2cc1OCCCN1CCCC1 [Compound 5, 2-(4,4-difluoropiperidin-1-yl)-6-methoxy-N-((1-methylpiperidin-4-yl)methyl)-7-(3-(pyrrolidin-1-yl)propoxy)quinazolin-4-amine] |
| 0.727 | > 100 | COc1cc2c(Nc3ccncc3)nc(N3CCC(F)(F)CC3)nc2cc1OCCCN1CCCC1 [Compound 7, 2-(4,4-difluoropiperidin-1-yl)-6-methoxy-N-(pyridin-4-yl)-7-(3-(pyrrolidin-1-yl)propoxy)quinazolin-4-amine] |
| > 1 | > 100 | COc1cc2c(NC3CCNCC3)nc(N3CCC(F)(F)CC3)nc2cc1OCCCN1CCCC1 [Compound 8, 2-(4,4-difluoropiperidin-1-yl)-6-methoxy-N-(piperidin-4-yl)-7-(3-(pyrrolidin-1-yl)propoxy)quinazolin-4-amine] |
| > 1 | > 100 | COc1cc2c(NCC(N)=O)nc(N3CCC(F)(F)CC3)nc2cc1OCCCN1CCCC1 [Compound 9, 2-((2-(4,4-difluoropiperidin-1-yl)-6-methoxy-7-(3-(pyrrolidin-1-yl)propoxy)quinazolin-4-yl)amino)acetamide] |
| > 1 | > 100 | COc1cc2c(NC3COC3)nc(N3CCC(F)(F)CC3)nc2cc1OCCCN1CCCC1 [Compound 11, 2-(4,4-difluoropiperidin-1-yl)-6-methoxy-N-(oxetan-3-yl)-7-(3-(pyrrolidin-1-yl)propoxy)quinazolin-4-amine] |
| > 1 | > 100 | COc1cc2c(NC3CCS(=O)(=O)CC3)nc(N3CCCC3)nc2cc1OCCCN1CCCC1 [Compound 80, 4-((6-methoxy-2-(pyrrolidin-1-yl)-7-(3-(pyrrolidin-1-yl)propoxy)quinazolin-4-yl)amino)tetrahydro-2H-thiopyran 1,1-dioxide] |
| > 1 | > 100 | COc1cc2c(NC3CCS(=O)(=O)CC3)nc(N3CCOCC3)nc2cc1OCCCN1CCCC1 [Compound 102, 4-((6-methoxy-2-morpholino-7-(3-(pyrrolidin-1-yl)propoxy)quinazolin-4-yl)amino)tetrahydro-2H-thiopyran 1,1-dioxide] |
| > 1 | > 100 | COc1cc2c(NC3CCS(=O)(=O)CC3)nc(N3CCS(=O)(=O)CC3)nc2cc1OCCCN1CCCC1 [Compound 103, 4-(4-((1,1-dioxidotetrahydro-2H-thiopyran-4-yl)amino)-6-methoxy-7-(3-(pyrrolidin-1-yl)propoxy)quinazolin-2-yl)thiomorpholine 1,1-dioxide] |
| > 1 | > 100 | COc1cc2c(NC3CCS(=O)(=O)CC3)nc(N3CCN(C)CC3)nc2cc1OCCCN1CCCC1 [Compound 109, 4-((6-methoxy-2-(4-methylpiperazin-1-yl)-7-(3-(pyrrolidin-1-yl)propoxy)quinazolin-4-yl)amino)tetrahydro-2H-thiopyran 1,1-dioxide] |
| > 1 | > 100 | COc1cc2c(NC3CCS(=O)(=O)CC3)nc(N3CCCN(C)CC3)nc2cc1OCCCN1CCCC1 [Compound 110, 4-((6-methoxy-2-(4-methyl-1,4-diazepan-1-yl)-7-(3-(pyrrolidin-1-yl)propoxy)quinazolin-4-yl)amino)tetrahydro-2H-thiopyran 1,1-dioxide] |
| 0.535 | 65.5 | COc1cc2c(Nc3ccncc3)nc(-n3ccnc3)nc2cc1OCCCN1CCCC1 [Compound 130, 2-(1H-imidazol-1-yl)-6-methoxy-N-(pyridin-4-yl)-7-(3-(pyrrolidin-1-yl)propoxy)quinazolin-4-amine] |
| 0.988 | > 100 | COc1cc2c(NC3CCN(C(C)C)CC3)nc(-n3ccnc3)nc2cc1OCCCN1CCCC1 [Compound 156, 2-(1H-imidazol-1-yl)-N-(1-isopropylpiperidin-4-yl)-6-methoxy-7-(3-(pyrrolidin-1-yl)propoxy)quinazolin-4-amine] |
| > 1 | > 100 | COc1cc2c(NC3CCN(C(C)C)CC3)nc(-n3cccn3)nc2cc1OCCCN1CCCC1 [Compound 157, N-(1-isopropylpiperidin-4-yl)-6-methoxy-2-(1H-pyrazol-1-yl)-7-(3-(pyrrolidin-1-yl)propoxy)quinazolin-4-amine] |
| 0.637 | > 100 | COc1cc2c(N[C@H]3CCCNC3)nc(N3CCCC3)nc2cc1OCCCN1CCCC1 [Compound 158, (S)-6-methoxy-N-(piperidin-3-yl)-2-(pyrrolidin-1-yl)-7-(3-(pyrrolidin-1-yl)propoxy)quinazolin-4-amine] |

| SMILES | half-life at 1 μg/mL [1] [h] | IC50 (CYP2C9) [µM] |
| --- | --- | --- |
| COc1cc2c(NC3CCS(=O)(=O)CC3)nc(N3CCC(F)(F)CC3)nc2cc1OCCCN1CCCC1 [Compound 1, 4-((2-(4,4-difluoropiperidin-1-yl)-6-methoxy-7-(3-(pyrrolidin-1-yl)propoxy)quinazolin-4-yl)amino)tetrahydro-2H-thiopyran 1,1-dioxide] | > 1 | > 100 |
